Test results reported in ChEMBL document CHEMBL5518164, “Membrane-permeable tenofovir-di- and monophosphate analogues” (Eur J Med Chem, 2024).
Activity calls are given as the source filed them. The rule behind the calls is not given here.

Legend:
[1] = Cytotoxicity against human CEM cells assessed as inhibition of cell proliferation; format: toxicity, cell-based, CCRF-CEM
[2] = Drug hydrolysis in phosphate buffer saline incubated for 600 hrs at pH 7.3 by RP18-HPLC analysis; format: physicochemical; conditions: read-out: Drug degradation
[3] = Lipophilicity of the compound assessed as retention time by RP-HPLC analysis; format: physicochemical
[4] = tested on: Human immunodeficiency virus 1; experiment: Antiviral activity against HIV-1 HE infected in wild type human CEM/0 cells assessed as inhibition of virus-induced giant cell formation incubated for 4 to 5 days by light microscopy; format: functional, organism-based; conditions: Human immunodeficiency virus 1, HE, CCRF-CEM
[5] = Half life of the compound in phosphate buffer saline at pH 7.3 by RP18-HPLC analysis; format: ADME
[6] = Selectivity index, ratio of CC50 for cytotoxicity against human CEM cells to EC50 for antiviral activity against HIV-2 ROD infected in thymidine kinase deficient human CEM cells; format: toxicity, cell-based; conditions: read-out: Ratio CC50/EC50
[7] = tested on: Human immunodeficiency virus 2; experiment: Antiviral activity against HIV-2 ROD infected in wild type human CEM/0 cells assessed as inhibition of virus-induced giant cell formation incubated for 4 to 5 days by light microscopy; format: functional, organism-based; conditions: Human immunodeficiency virus 2, ROD, CCRF-CEM
[8] = Drug hydrolysis in phosphate buffer saline incubated for 500 hrs at pH 7.3 by RP18-HPLC analysis; format: physicochemical; conditions: read-out: Drug degradation
[9] = tested on: Human immunodeficiency virus 2; experiment: Antiviral activity against HIV-2 ROD infected in thymidine kinase deficient human CEM cells assessed as inhibition of virus-induced giant cell formation incubated for 4 to 5 days by light microscopy; format: functional, organism-based; conditions: Human immunodeficiency virus 2, ROD, CCRF-CEM
[10] = Half life of the compound in human CEM/0 cell extracts by RP18-HPLC analysis; format: ADME, CCRF-CEM
[11] = tested on: Human immunodeficiency virus; experiment: Substrate activity at HIV reverse transcriptase assessed as elongation of primer at 250 uM incubated for 30 mins in presence of primer/template mixture by primer extension assay based fluorescence analysis
[12] = tested on: Human immunodeficiency virus; experiment: Substrate activity at HIV reverse transcriptase assessed as elongation of primer at 250 uM incubated for 30 mins in presence of primer/template mixture and dNTPs by primer extension assay based fluorescence analysis
[13] = target: T1, DNA polymerase subunit gamma-1 (Homo sapiens) (UniProt P54098); experiment: Substrate activity at human DNA polymerase gamma assessed as elongation of primer at 250 uM incubated for 120 mins in presence of primer/template mixture by primer extension assay based fluorescence analysis
T1 sequence (whole entry): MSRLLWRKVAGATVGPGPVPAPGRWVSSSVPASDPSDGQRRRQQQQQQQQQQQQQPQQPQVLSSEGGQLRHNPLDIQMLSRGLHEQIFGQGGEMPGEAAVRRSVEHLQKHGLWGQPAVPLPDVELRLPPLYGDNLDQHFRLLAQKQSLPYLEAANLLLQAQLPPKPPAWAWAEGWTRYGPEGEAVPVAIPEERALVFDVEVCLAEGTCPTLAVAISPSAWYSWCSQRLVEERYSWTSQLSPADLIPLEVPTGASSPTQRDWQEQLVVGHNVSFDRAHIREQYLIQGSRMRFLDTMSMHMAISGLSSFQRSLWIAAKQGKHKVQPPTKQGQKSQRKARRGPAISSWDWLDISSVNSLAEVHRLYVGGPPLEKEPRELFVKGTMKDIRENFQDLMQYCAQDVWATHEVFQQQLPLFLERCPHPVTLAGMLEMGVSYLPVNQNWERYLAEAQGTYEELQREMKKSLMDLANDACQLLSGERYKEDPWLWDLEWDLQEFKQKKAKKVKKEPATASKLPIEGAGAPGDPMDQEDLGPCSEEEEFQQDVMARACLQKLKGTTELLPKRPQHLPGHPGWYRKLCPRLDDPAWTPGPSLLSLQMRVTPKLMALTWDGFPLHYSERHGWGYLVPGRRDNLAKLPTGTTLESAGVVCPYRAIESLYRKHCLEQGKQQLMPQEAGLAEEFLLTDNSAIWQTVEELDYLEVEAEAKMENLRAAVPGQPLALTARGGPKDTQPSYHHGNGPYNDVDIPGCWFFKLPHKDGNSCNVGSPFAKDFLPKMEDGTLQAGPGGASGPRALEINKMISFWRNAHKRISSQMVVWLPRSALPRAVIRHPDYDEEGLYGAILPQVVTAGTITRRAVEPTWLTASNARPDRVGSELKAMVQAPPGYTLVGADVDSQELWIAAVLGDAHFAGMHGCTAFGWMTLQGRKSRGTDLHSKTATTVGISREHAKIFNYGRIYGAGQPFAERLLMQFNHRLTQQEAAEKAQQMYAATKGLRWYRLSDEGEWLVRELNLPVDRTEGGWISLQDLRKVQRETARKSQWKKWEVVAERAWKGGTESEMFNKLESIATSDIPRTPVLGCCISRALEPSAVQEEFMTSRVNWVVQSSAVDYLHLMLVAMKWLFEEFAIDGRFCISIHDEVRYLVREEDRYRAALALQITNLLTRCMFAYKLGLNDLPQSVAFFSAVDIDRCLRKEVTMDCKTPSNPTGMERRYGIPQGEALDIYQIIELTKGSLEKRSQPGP

[14] = tested on: Human immunodeficiency virus; experiment: Inhibition of HIV reverse transcriptase assessed as inhibition of elongation of primer at 25000 uM incubated for 30 mins in presence of primer/template mixture and dNTPs by primer extension assay based fluorescence analysis
[15] = tested on: Human immunodeficiency virus; experiment: Inhibition of HIV reverse transcriptase assessed as inhibition of elongation of primer at 25000 uM incubated for 30 mins in presence of primer/template mixture and 250 uM dNTPs by primer extension assay based fluorescence analysis
[16] = tested on: Human immunodeficiency virus; experiment: Substrate activity at HIV reverse transcriptase assessed as n+1 band formation incubated for 30 mins in presence of primer/template mixture by primer extension assay based fluorescence analysis
[17] = target: T1, DNA polymerase subunit gamma-1 (Homo sapiens); experiment: Substrate activity at human DNA polymerase gamma assessed as elongation of primer at 250 uM incubated for 120 mins in presence of primer/template mixture and dNTPs by primer extension assay based fluorescence analysis
[18] = tested on: Human immunodeficiency virus; experiment: Substrate activity at HIV reverse transcriptase assessed as n+1 band formation incubated for 30 mins in presence of primer/template mixture and 2.6 fold excess of dNTPs by primer extension assay based fluorescence analysis
[19] = tested on: Human immunodeficiency virus; experiment: Substrate activity at HIV reverse transcriptase assessed as n+1 band formation incubated for 30 mins in presence of primer/template mixture and dNTPs by primer extension assay based fluorescence analysis
[20] = tested on: Human immunodeficiency virus; experiment: Substrate activity at HIV reverse transcriptase assessed as full elongation of primer by measuring n+5 band formation incubated for 30 mins in presence of primer/template mixture and dNTPs by primer extension assay based fluorescence analysis
[21] = Prodrug conversion of the compound in phosphate buffer saline assessed as Tenofovir monophosphate formation by measuring half life at pH 7.3 by RP18-HPLC analysis; format: ADME
[22] = Prodrug conversion of the compound in phosphate buffer saline assessed as Tenofovir monophosphate by measuring half life in presence of pig liver esterase at pH 7.3 by RP18-HPLC analysis; format: ADME, Sus scrofa
[23] = Prodrug conversion of the compound in phosphate buffer saline assessed as (R)-9-(2-(phosphonomethoxy)propyl)adenine formation by measuring half life at pH 7.3 by RP18-HPLC analysis; format: ADME
[24] = Prodrug conversion of the compound in phosphate buffer saline assessed as (R)-9-(2-(phosphonomethoxy)propyl)adenine formation by measuring half life in presence of pig liver esterase at pH 7.3 by RP18-HPLC analysis; format: ADME, Sus scrofa
[25] = tested on: Human immunodeficiency virus 1; experiment: Potency index, ratio of Tenofovir EC50 to test compound EC50 for antiviral activity against HIV-1 HE infected in wild type human CEM/0 cells; format: functional
[26] = tested on: Human immunodeficiency virus 2; experiment: Potency index, ratio of Tenofovir EC50 to test compound EC50 for antiviral activity against HIV-2 ROD infected in wild type human CEM/0 cells; format: functional
[27] = tested on: Human immunodeficiency virus; experiment: Substrate activity at HIV reverse transcriptase assessed as n+1 band formation at 97.6 to 12500 uM incubated for 30 mins in presence of primer/template mixture and 250 uM dNTPs by primer extension assay based fluorescence analysis; conditions: dose 97.6-12500 µM
[28] = tested on: Human immunodeficiency virus; experiment: Substrate activity at HIV reverse transcriptase assessed as elongation of primer at 97.6 to 12500 uM incubated for 30 mins in presence of primer/template mixture and 250 uM dNTPs by primer extension assay based fluorescence analysis; conditions: dose 97.6-12500 µM
[29] = tested on: Human immunodeficiency virus; experiment: Substrate activity at HIV reverse transcriptase assessed as n+1 band formation at 25000 uM incubated for 30 mins in presence of primer/template mixture and dNTPs by primer extension assay based fluorescence analysis
[30] = tested on: Human immunodeficiency virus; experiment: Substrate activity at HIV reverse transcriptase assessed as elongation of primer at 97.6 to 12500 uM incubated for 30 mins in presence of primer/template mixture and dNTPs by primer extension assay based fluorescence analysis; conditions: dose 97.6-12500 µM
[31] = tested on: Human immunodeficiency virus 2; experiment: Potency index, ratio of Tenofovir EC50 to test compound EC50 for antiviral activity against HIV-2 ROD infected in thymidine kinase deficient human CEM cells; format: functional

| Compound | CC50 [1] [nM] | Retention_time [3] [min] | EC50 [4] [nM] | selectivity ratio [6] | EC50 [7] [nM] | EC50 [9] [nM] | half-life [10] [h] | Activity [13] | inhibition [14] | inhibition [15] | Activity [16] | Activity [17] | Activity [19] | Activity [20] | t1/2 [23] [h] | t1/2 [24] [h] | further results |
| --- | --- | --- | --- | --- | --- | --- | --- | --- | --- | --- | --- | --- | --- | --- | --- | --- | --- |
| CCCCCCCCCCCCCCCCCCP(=O)(OCCCCCCCC)OP(=O)(O)OP(=O)(O)CO[C@H](C)Cn1cnc2c(N)ncnc21 (stereo partly drawn) | 48500 | 16.3 | 640 | 882 | 140 | 55 | > 8 | – | – | – | – | – | – | – | – | – | degraded at 600 h [2]: 43%; half-life [5]: > 500 h; degraded at 500 h [8]: 36% |
| C[C@H](Cn1cnc2c(N)ncnc21)OCP(=O)(O)OP(=O)(O)O | – | – | – | – | – | – | – | inactive | – | – | – | – | – | – | – | – | Activity [11]: Active; Activity [12]: Active |
| CCCCCCCCCCCOP(=O)(O)OP(=O)(O)OP(=O)(O)CO[C@H](C)Cn1cnc2c(N)ncnc21 | > 100000 | 12.5 | 5270 | > 21 | 5550 | 4620 | – | inactive | Active | Active | Active | Active | inactive | Active | – | – | Activity [18]: Active |
| CCCCCCCCC(=O)Oc1ccc(COOP(=O)(O)OP(=O)(O)OP(=O)(O)CO[C@H](C)Cn2cnc3c(N)ncnc32)cc1 | 48900 | 16.4 | 1130 | 87 | 350 | 560 | 0.97 | – | – | – | – | – | – | – | 9 | 0.00267 | t1/2 [21]: > 200 h; t1/2 [22]: 3.6 s |
| C[C@H](Cn1cnc2c(N)ncnc21)OCP(=O)(O)O [TENOFOVIR ANHYDROUS] | > 100000 | 6.6 | 2080 | > 113 | 1760 | 880 | – | inactive | – | – | – | – | – | – | – | – | Activity [11]: inactive; Activity [12]: Active; half-life [5]: > 1000 h |
| CCCCCCCCCCCCCCCCCCOP(=O)(OCc1ccc(OC(=O)CCCC)cc1)OP(=O)(O)OP(=O)(O)CO[C@H](C)Cn1cnc2c(N)ncnc21 (stereo partly drawn) | 57200 | 17.5 | 150 | 986 | 76 | 58 | 2.1 | – | – | – | – | – | – | – | 51 | 0.683 | Ratio EC50 [25]: 13; Ratio EC50 [26]: 23 |
| C[C@H](Cn1cnc2c(N)ncnc21)OCP(=O)(O)OP(=O)(O)OP(=O)(O)O | – | – | – | – | – | – | – | inactive | Active | Active | Active | Active | Active | Active | – | – | Activity [27]: Active; Activity [28]: Active; Activity [29]: inactive; Activity [30]: Active |
| CCCCCCCCCCCCCCCCCCOP(=O)(O)OP(=O)(O)OP(=O)(O)CO[C@H](C)Cn1cnc2c(N)ncnc21 | > 100000 | 14.2 | 360 | > 3700 | 700 | 27 | > 8 | inactive | Active | Active | Active | Active | inactive | Active | > 200 | > 50 | Ratio EC50 [31]: 32; Activity [18]: Active |
